Source: patent US6699719B2, “Biosensor arrays and methods” (Proteomic Systems, Inc., priority 1996, dated 2004)

Legend:
[1] = molecular target: CXCR4 (CXC chemokine Receptor 4) (Homo sapiens, UniProt P61073); experiment: MembraneChip specificity of fluorescent ligand binding against another GPCR; conditions: CXCR4 chip probed with 15 μM BODIPY 558/568 Pirenzepine
[2] = MembraneChip lipid only control corral probed with fluorescent ligand; type: binding; conditions: for difference in BODIPY TMR CGP12177 fluorescence when competitor added: lipid only (negative) corral, 5 mM propranolol or 15 mM scopolamine
CXCR1 = molecular target: T1, CXCR1 (Homo sapiens, UniProt P25024); experiment: Multiplexed MembraneChip GPCR assay; type: binding; conditions: CXCR1 corral; 5 mM propranolol or 15 mM scopolamine
T1 construct: purchased Stratagene (La Jolla, Calif.)
T1 sequence (P25024 1-350): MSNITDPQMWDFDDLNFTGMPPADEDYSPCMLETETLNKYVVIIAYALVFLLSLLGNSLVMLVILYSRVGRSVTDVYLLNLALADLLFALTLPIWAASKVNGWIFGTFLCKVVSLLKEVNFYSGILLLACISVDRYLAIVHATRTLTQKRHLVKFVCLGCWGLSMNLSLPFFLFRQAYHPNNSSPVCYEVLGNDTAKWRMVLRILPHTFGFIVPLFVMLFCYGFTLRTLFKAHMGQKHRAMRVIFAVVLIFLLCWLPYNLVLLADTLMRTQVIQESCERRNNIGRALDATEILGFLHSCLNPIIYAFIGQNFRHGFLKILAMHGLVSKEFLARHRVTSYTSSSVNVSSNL

CXCR3 = molecular target: T2, CXCR3 (Homo sapiens, UniProt P49682); experiment: Multiplexed MembraneChip GPCR assay; type: binding; conditions: CXCR3 corral; 5 mM propranolol or 15 mM scopolamine
T2 construct: purchased Stratagene (La Jolla, Calif.)
T2 sequence (P49682 1-368): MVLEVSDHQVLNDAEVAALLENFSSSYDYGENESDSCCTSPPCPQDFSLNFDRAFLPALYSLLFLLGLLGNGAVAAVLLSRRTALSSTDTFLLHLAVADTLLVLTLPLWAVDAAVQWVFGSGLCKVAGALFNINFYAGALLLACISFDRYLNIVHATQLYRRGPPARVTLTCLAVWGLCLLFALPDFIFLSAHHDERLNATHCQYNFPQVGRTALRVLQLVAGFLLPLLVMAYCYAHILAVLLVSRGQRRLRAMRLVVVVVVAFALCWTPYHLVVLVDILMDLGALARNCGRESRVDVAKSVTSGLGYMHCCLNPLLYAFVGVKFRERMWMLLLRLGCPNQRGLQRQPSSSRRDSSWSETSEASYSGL

AR-β1 = molecular target: T3, AR-β1 (Homo sapiens, UniProt P08588); experiment: Multiplexed MembraneChip GPCR assay; type: binding; conditions: 15 mM scopolamine
T3 construct: purchased Packard BioScience (Meriden, CT) 6110106
T3 sequence (P08588 whole entry): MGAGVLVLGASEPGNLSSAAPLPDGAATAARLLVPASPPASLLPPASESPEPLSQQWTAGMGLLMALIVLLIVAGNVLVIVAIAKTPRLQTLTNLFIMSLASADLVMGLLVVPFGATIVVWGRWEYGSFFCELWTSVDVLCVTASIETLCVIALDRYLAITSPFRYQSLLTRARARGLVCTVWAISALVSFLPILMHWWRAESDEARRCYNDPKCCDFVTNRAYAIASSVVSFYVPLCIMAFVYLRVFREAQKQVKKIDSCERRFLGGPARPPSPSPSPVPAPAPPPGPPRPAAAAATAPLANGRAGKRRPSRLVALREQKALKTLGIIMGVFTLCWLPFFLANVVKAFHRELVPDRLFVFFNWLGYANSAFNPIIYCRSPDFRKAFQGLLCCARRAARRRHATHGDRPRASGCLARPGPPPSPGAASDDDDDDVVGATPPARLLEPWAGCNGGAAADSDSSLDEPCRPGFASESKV

CXCR4 = CXCR4 (Homo sapiens, UniProt P61073); experiment: Multiplexed MembraneChip GPCR assay; type: binding; conditions: CXCR4 corral; 5 mM propranolol or 15 mM scopolamine
Chain of CXCR4 (P61073 whole entry, species assumed): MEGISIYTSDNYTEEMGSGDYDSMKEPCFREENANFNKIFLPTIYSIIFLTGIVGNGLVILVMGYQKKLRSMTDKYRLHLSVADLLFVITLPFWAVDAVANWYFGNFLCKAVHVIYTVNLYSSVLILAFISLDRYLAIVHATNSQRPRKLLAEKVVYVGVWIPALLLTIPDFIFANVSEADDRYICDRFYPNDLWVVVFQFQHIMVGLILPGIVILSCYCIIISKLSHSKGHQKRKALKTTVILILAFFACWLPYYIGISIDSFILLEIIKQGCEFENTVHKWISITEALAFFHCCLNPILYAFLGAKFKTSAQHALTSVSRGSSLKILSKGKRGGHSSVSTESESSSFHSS

Chain of CXCR4 (CXC chemokine Receptor 4) (P61073 whole entry, species assumed): as above

SMILES | Relative Fluorescence Units (RFU) ± standard deviation, CXCR4 [1] | Relative Fluorescence Units (RFU) ± standard deviation, Negative ([2]; lipid only corral probed with 15 μM BODIPY 558/568 Pirenzepine) | difference in BODIPY TMR CGP12177 fluorescence when competitor added [2] | difference in BODIPY TMR CGP12177 fluorescence when competitor added (CXCR1) | difference in BODIPY TMR CGP12177 fluorescence when competitor added (CXCR3) | change in fluorescence of BODIPY TMR CGP12177 at AR-β1 (AR-β1) | difference in BODIPY TMR CGP12177 fluorescence when competitor added (CXCR4)
O=C(CCc1ccc(/C=C2\C=CC(c3cccs3)=N2)n1B(F)F)NCCCCCCN1CCN(CC(=O)N2c3ccccc3C(=O)Nc3cccnc32)CC1 [BODIPY 558/568 Pirenzepine] | 8,788 ± 3,137 RFU | 2,637 ± 1,846 RFU |  |  |  |  | 
CC(C)NCC(O)COc1cccc2ccccc12 (stereo not shown) [propranolol] |  |  | only negligible differences | only negligible differences | only negligible differences |  | 
CN1[C@@H]2C[C@@H](OC(=O)[C@H](CO)c3ccccc3)C[C@H]1[C@@H]1O[C@@H]12 [scopolamine] |  |  | only negligible differences | only negligible differences | only negligible differences | Little decrease in fluorescence | only negligible differences
